In PubChem BioAssay AID192 (DTP/NCI, 2004):
Where “and” joins values, the source holds several entries; their conditions need not be identical. Identical values can stand only once. Toxic doses and inconclusive results are not listed.

Test system: BDF1 mice, B16 melanoma ip, median survival T/C
Assay: NCI In Vivo Anticancer Drug Screen. Data for tumor model B16 Melanoma (intraperitoneal) in B6D2F1 (BDF1) mice
Settings: endpoint: median survival time, higher = longer survival
How it was run: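 Compounds were tested in mice carrying transplantable tumors. Survival or tumor size was recorded, and each value is the treated-group measurement (T) divided by that of the vehicle-treated control group (C).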

[1] = dose: 50.0 mg/kg/injection, schedule: Q01DX009 (ip), vehicle: Klucel (hydroxypropylcellulose) (HPC)
[2] = dose: 100.0 mg/kg/injection, schedule: Q01DX009 (ip), vehicle: Klucel (hydroxypropylcellulose) (HPC)
[3] = dose: 3.12 mg/kg/injection, schedule: Q01DX009 (ip), vehicle: Klucel (hydroxypropylcellulose) (HPC)
[4] = dose: 6.25 mg/kg/injection, schedule: Q01DX009 (ip), vehicle: Klucel (hydroxypropylcellulose) (HPC)
[5] = dose: 12.5 mg/kg/injection, schedule: Q01DX009 (ip), vehicle: Klucel (hydroxypropylcellulose) (HPC)
[6] = dose: 200.0 mg/kg/injection, schedule: Q01DX009 (ip), vehicle: Klucel (hydroxypropylcellulose) (HPC)
[7] = dose: 400.0 mg/kg/injection, schedule: Q01DX009 (ip), vehicle: Klucel (hydroxypropylcellulose) (HPC)
[8] = dose: 25.0 mg/kg/injection, schedule: Q01DX009 (ip), vehicle: saline with Tween-80
[9] = dose: 50.0 mg/kg/injection, schedule: Q01DX009 (ip), vehicle: saline with Tween-80
[10] = dose: 100.0 mg/kg/injection, schedule: Q01DX009 (ip), vehicle: saline with Tween-80
[11] = dose: 400.0 mg/kg/injection, schedule: Q01DX009 (ip), vehicle: saline with Tween-80

CCCCC(=O)OCC(=O)[C@]1(O)Cc2c(O)c3c(c(O)c2[C@@H](OC2CC(NC(=O)C(F)(F)F)C(O)C(C)O2)C1)C(=O)c1c(OC)cccc1C3=O (some centres undefined)
T/C (dose: 7.78 mg/kg/injection, schedule: Q01DX004 (ip), vehicle: other): 106 % of control | T/C (dose: 9.38 mg/kg/injection, schedule: Q01DX001 (ip), vehicle: clinical formulation): 111 % of control | T/C (dose: 13.0 mg/kg/injection, schedule: Q01DX004 (ip), vehicle: other): 115 % of control | T/C (dose: 21.6 mg/kg/injection, schedule: Q01DX004 (ip), vehicle: other): 122 % of control | T/C (dose: 32.0 mg/kg/injection, schedule: Q01DX009 (ip), vehicle: distilled water + Tween-80): 180 % of control | T/C (dose: 36.0 mg/kg/injection, schedule: Q01DX004 (ip), vehicle: other): 122 % of control | T/C (dose: 64.0 mg/kg/injection, schedule: Q01DX009 (ip), vehicle: distilled water + Tween-80): 158 % of control | T/C (dose: 75.0 mg/kg/injection, schedule: Q01DX001 (ip), vehicle: clinical formulation): 191 % of control | T/C (dose: 128.0 mg/kg/injection, schedule: Q01DX009 (ip), vehicle: distilled water + Tween-80): 288 % of control | T/C (dose: 150.0 mg/kg/injection, schedule: Q01DX001 (ip), vehicle: clinical formulation): 169 % of control and 205 % of control

C1=CC2(OCCO2)C2CC=CC3(OCCO3)C2C1 (centres undefined)
T/C [1]: 104 % of control | T/C [2]: 97 % of control

CCCCOc1ccc(OCCCCCCCCCC[N+](C)(C)C)cc1
T/C (dose: 1.56 mg/kg/injection, schedule: Q01DX009 (ip), vehicle: Klucel (hydroxypropylcellulose) (HPC)): 98 % of control | T/C [3]: 96 % of control | T/C [4]: 96 % of control | T/C [5]: 93 % of control

Cc1ccc(C)c(NC(=O)c2ccccc2C(=O)O)c1
T/C [2]: 94 % of control | T/C [6]: 91 % of control

Clc1nnc(Nc2ccccc2)c2ccccc12
T/C [2]: 92 % of control | T/C [6]: 97 % of control | T/C [7]: 86 % of control

NC(=S)N/N=C/c1ccc(C(F)(F)F)cn1
T/C (dose: 8.8 mg/kg/injection, schedule: Q01DX009 (ip), vehicle: Klucel (hydroxypropylcellulose) (HPC)): 106 % of control | T/C (dose: 13.3 mg/kg/injection, schedule: Q01DX009 (ip), vehicle: Klucel (hydroxypropylcellulose) (HPC)): 108 % of control | T/C (dose: 20.0 mg/kg/injection, schedule: Q01DX009 (ip), vehicle: Klucel (hydroxypropylcellulose) (HPC)): 109 % of control

c1ccc2c(c1)Cc1cc3ccccc3nc1-2
T/C (dose: 100.0 mg/kg/injection, schedule: Q04DX003 (ip), vehicle: Klucel (hydroxypropylcellulose) (HPC)): 102 % of control | T/C (dose: 200.0 mg/kg/injection, schedule: Q04DX003 (ip), vehicle: Klucel (hydroxypropylcellulose) (HPC)): 114 % of control | T/C (dose: 400.0 mg/kg/injection, schedule: Q04DX003 (ip), vehicle: Klucel (hydroxypropylcellulose) (HPC)): 98 % of control

CC1=C(/C=C/C(C)=N/NC(N)=O)C(C)(C)CCC1
T/C (dose: 50.0 mg/kg/injection, schedule: Q04DX003 (ip), vehicle: saline): 112 % of control | T/C (dose: 100.0 mg/kg/injection, schedule: Q04DX003 (ip), vehicle: saline): 95 % of control | T/C (dose: 200.0 mg/kg/injection, schedule: Q04DX003 (ip), vehicle: saline): 102 % of control

CCN(CC)CCCC(C)Nc1cc(C)nc(Nc2nc3cc(Cl)c(Cl)cc3[nH]2)n1 (centres undefined)
T/C (dose: 1.25 mg/kg/injection, schedule: Q01DX009 (ip), vehicle: Klucel (hydroxypropylcellulose) (HPC)): 94 % of control | T/C (dose: 2.5 mg/kg/injection, schedule: Q01DX009 (ip), vehicle: Klucel (hydroxypropylcellulose) (HPC)): 95 % of control | T/C (dose: 5.0 mg/kg/injection, schedule: Q01DX009 (ip), vehicle: Klucel (hydroxypropylcellulose) (HPC)): 96 % of control | T/C (dose: 10.0 mg/kg/injection, schedule: Q01DX009 (ip), vehicle: Klucel (hydroxypropylcellulose) (HPC)): 91 % of control

CC1(C)OC2OC(COC(=O)c3ccccc3)C(=O)C2O1 (centres undefined)
T/C [8]: 94 % of control | T/C [9]: 97 % of control | T/C [10]: 93 % of control | T/C [11]: 88 % of control

CCN(CC)c1nc(N(CC)CC)nc(N(CC)CC)n1
T/C [8]: 89 % of control | T/C [9]: 94 % of control

CC(=O)Oc1c(Br)cc(Br)cc1-c1ccccc1
T/C [9]: 98 % of control | T/C [10]: 94 % of control | T/C (dose: 200.0 mg/kg/injection, schedule: Q01DX009 (ip), vehicle: saline with Tween-80): 98 % of control | T/C [11]: 91 % of control

O=C(O)/C=C/C(=O)Nc1ccc(N=Nc2ccccc2)cc1
T/C [1]: 104 % of control | T/C [2]: 105 % of control | T/C [6]: 97 % of control

CC1CCC(=C(c2ccccc2)c2ccccc2)C(C)N1C (centres undefined)
T/C (dose: 25.0 mg/kg/injection, schedule: Q04DX003 (ip), vehicle: saline with Tween-80): 105 % of control | T/C (dose: 50.0 mg/kg/injection, schedule: Q04DX003 (ip), vehicle: saline with Tween-80): 93 % of control

O=C(O)CN(CCN(CC(=O)O)CC(=O)O)CCN(CC(=O)O)CC(=O)O
T/C [3]: 94 % of control | T/C [4]: 93 % of control and 94 % of control | T/C [5]: 102 % of control | T/C (dose: 25.0 mg/kg/injection, schedule: Q01DX009 (ip), vehicle: Klucel (hydroxypropylcellulose) (HPC)): 96 % of control | T/C [1]: 88 % of control | T/C [6]: 92 % of control

CNCCN(C)CCNC
T/C (dose: 25.0 mg/kg/injection, schedule: Q01DX009 (ip), vehicle: saline): 98 % of control | T/C (dose: 50.0 mg/kg/injection, schedule: Q01DX009 (ip), vehicle: saline): 89 % of control | T/C (dose: 100.0 mg/kg/injection, schedule: Q01DX009 (ip), vehicle: saline): 95 % of control

CC1OC(=O)C(C(C)C)NC(=O)C(C(C)C)OC(=O)C(C(C)C)NC(=O)C(C)OC(=O)C(C(C)C)NC(=O)C(C(C)C)OC(=O)C(C(C)C)NC(=O)C(C)OC(=O)C(C(C)C)NC(=O)C(C(C)C)OC(=O)C(C(C)C)NC1=O (centres undefined)
T/C (dose: 0.04 mg/kg/injection, schedule: Q01DX009 (ip), vehicle: saline with Tween-80): 101 % of control | T/C (dose: 0.08 mg/kg/injection, schedule: Q01DX009 (ip), vehicle: saline with Tween-80): 106 % of control | T/C (dose: 0.16 mg/kg/injection, schedule: Q01DX009 (ip), vehicle: saline with Tween-80): 117 % of control | T/C (dose: 0.2 mg/kg/injection, schedule: Q01DX009 (ip), vehicle: DMSO): 117 % of control | T/C (dose: 0.31 mg/kg/injection, schedule: Q01DX009 (ip), vehicle: saline with Tween-80): 152 % of control | T/C (dose: 0.4 mg/kg/injection, schedule: Q01DX009 (ip), vehicle: DMSO): 176 % of control | T/C (dose: 0.75 mg/kg/injection, schedule: Q01DX009 (ip), vehicle: Klucel (hydroxypropylcellulose) (HPC)): 106 % of control | T/C (dose: 0.75 mg/kg/injection, schedule: Q01DX009 (oral), vehicle: Klucel (hydroxypropylcellulose) (HPC)): 101 % of control | T/C (dose: 1.5 mg/kg/injection, schedule: Q01DX009 (ip), vehicle: Klucel (hydroxypropylcellulose) (HPC)): 101 % of control | T/C (dose: 1.5 mg/kg/injection, schedule: Q01DX009 (oral), vehicle: Klucel (hydroxypropylcellulose) (HPC)): 104 % of control | T/C (dose: 2.5 mg/kg/injection, schedule: Q01DX009 (ip), vehicle: saline with Tween-80): 153 % of control | T/C (dose: 3.0 mg/kg/injection, schedule: Q01DX009 (oral), vehicle: Klucel (hydroxypropylcellulose) (HPC)): 105 % of control | T/C (dose: 5.0 mg/kg/injection, schedule: Q01DX009 (ip), vehicle: saline with Tween-80): 183 % of control | T/C (dose: 5.0 mg/kg/injection, schedule: Q01DX009 (oral), vehicle: saline with Tween-80): 105 % of control | T/C (dose: 6.0 mg/kg/injection, schedule: Q01DX009 (ip), vehicle: saline with Tween-80): 165 % of control | T/C (dose: 6.0 mg/kg/injection, schedule: Q01DX009 (oral), vehicle: Klucel (hydroxypropylcellulose) (HPC)): 107 % of control | T/C (dose: 10.0 mg/kg/injection, schedule: Q01DX009 (ip), vehicle: saline with Tween-80): 171 % of control | T/C (dose: 10.0 mg/kg/injection, schedule: Q01DX009 (oral), vehicle: saline with Tween-80): 116 % of control | T/C (dose: 12.0 mg/kg/injection, schedule: Q01DX009 (oral), vehicle: Klucel (hydroxypropylcellulose) (HPC)): 100 % of control | T/C (dose: 20.0 mg/kg/injection, schedule: Q01DX009 (ip), vehicle: saline with Tween-80): 94 % of control | T/C (dose: 20.0 mg/kg/injection, schedule: Q01DX009 (oral), vehicle: saline with Tween-80): 116 % of control | T/C (dose: 24.0 mg/kg/injection, schedule: Q01DX009 (oral), vehicle: Klucel (hydroxypropylcellulose) (HPC)): 94 % of control | T/C (dose: 40.0 mg/kg/injection, schedule: Q01DX009 (oral), vehicle: saline with Tween-80): 109 % of control

COc1cccc(N=Cc2ccc(C=Nc3cccc(OC)c3)cc2)c1
T/C [2]: 107 % of control | T/C [6]: 96 % of control | T/C [7]: 96 % of control
